Source: ChEMBL document CHEMBL1201862, “PubChem BioAssay data set” (2004)
Activity calls are given as the source filed them.

What was measured:
[1] = biological target: Lysosomal acid glucosylceramidase (Homo sapiens, UniProt P04062); assay: Dose response cell-based high throughput screening assay to identify enhancers of beta-glucosidase activity. [Related pubchem assays: 784 ]; type: functional
[2] = biological target: Neurotensin receptor type 1 (Homo sapiens, UniProt P30989); type: functional;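 note: Image-based confirmatory dose-response assay measuring agonist activity at NTR1; NTR1-expressing U2OS osteosarcoma cells imaged for beta-arrestin GFP spot formation; agonist potency where compounds increase beta-arrestin recruitment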
Chain of Neurotensin receptor type 1 (P30989 whole entry): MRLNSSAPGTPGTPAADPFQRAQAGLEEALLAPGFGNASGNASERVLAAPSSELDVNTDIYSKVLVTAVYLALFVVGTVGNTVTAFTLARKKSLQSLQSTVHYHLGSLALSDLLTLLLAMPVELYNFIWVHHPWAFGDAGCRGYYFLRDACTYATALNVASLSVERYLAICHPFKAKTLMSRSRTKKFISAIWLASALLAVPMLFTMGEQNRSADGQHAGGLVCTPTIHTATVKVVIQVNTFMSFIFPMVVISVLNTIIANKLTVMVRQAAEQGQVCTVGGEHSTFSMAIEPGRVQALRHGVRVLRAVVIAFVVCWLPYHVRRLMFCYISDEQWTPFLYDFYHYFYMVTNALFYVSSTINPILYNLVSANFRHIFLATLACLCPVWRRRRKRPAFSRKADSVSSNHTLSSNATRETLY

[3] = biological target: Eukaryotic translation initiation factor 4H (Homo sapiens, UniProt Q15056); assay: inhibitors of translation initiation factor eIF4H – SAR follow-up (AID 435011); type: functional
[4] = biological target: Polyadenylate-binding protein 1 (Homo sapiens, UniProt P11940); assay: PABP inhibition in translation initiation, SAR follow-up (AID 435018); type: functional
Chain of Polyadenylate-binding protein 1 (P11940 whole entry): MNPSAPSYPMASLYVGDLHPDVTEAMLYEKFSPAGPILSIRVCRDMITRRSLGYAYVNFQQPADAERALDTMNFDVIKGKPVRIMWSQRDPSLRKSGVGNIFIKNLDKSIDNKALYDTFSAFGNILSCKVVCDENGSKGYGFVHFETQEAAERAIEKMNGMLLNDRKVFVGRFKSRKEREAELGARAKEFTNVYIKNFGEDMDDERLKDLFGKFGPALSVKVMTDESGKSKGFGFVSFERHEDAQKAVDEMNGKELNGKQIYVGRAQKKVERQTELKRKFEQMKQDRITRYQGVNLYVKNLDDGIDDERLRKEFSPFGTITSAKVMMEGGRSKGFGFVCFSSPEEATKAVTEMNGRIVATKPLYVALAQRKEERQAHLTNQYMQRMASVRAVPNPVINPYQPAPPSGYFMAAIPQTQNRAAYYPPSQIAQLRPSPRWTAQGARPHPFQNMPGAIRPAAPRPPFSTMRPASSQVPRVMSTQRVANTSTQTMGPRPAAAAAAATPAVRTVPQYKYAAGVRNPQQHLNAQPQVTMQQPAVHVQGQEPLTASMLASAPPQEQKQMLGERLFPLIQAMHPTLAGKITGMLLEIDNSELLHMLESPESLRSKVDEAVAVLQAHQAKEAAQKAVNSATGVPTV

[5] = biological target: NS3 (Hepatitis C virus, UniProt A3EZJ3); assay: PubChem AID 2173; parameters: species or system Hepacivirus hominis
Chain of NS3 (A3EZJ3 whole entry, the tested form may be a part): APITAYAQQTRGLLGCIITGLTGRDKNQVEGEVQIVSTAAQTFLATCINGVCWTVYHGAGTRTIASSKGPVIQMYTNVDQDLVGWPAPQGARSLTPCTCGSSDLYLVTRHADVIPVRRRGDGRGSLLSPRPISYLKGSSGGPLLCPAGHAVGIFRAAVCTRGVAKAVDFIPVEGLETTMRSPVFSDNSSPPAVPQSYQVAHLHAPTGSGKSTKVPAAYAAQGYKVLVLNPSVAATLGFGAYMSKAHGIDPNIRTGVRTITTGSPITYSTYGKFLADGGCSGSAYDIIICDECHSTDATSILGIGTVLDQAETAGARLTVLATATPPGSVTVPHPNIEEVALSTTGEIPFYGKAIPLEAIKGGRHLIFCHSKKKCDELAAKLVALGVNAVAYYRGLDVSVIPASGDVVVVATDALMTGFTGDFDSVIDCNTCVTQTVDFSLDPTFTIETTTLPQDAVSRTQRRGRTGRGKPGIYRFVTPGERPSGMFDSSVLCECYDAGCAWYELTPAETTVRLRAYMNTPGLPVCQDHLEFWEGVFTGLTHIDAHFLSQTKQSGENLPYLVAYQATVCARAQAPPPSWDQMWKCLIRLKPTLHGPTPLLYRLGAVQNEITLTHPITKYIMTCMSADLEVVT

[6] = biological target: T1, Carboxy-terminal domain RNA polymerase II polypeptide A small phosphatase 1 (Homo sapiens, UniProt Q9GZU7); assay: CTDSP1 inhibitors, concentration-response, biochemical, absorbance readout, ultra-high-throughput screen actives (AID 540297); type: functional
T1 sequence (Q9GZU7 whole entry): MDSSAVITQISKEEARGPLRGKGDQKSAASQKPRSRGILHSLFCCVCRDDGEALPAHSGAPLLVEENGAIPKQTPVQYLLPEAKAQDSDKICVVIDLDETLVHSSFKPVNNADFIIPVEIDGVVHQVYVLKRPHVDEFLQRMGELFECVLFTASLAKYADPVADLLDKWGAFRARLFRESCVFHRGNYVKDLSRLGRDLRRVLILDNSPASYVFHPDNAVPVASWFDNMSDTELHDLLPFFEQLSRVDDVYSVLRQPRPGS

[7] = biological target: 1-acylglycerol-3-phosphate O-acyltransferase ABHD5/Perilipin-5 (Homo sapiens, UniProt Q00G26+Q8WTS1); assay: Luminescence-based biochemical high throughput dose response assay for inhibitors of the interaction of the lipase co-activator protein, abhydrolase domain containing 5 (ABHD5) with perilipin-5 (MLDP; PLIN5) (2K validation set). [Related pubchem assays (depositor defined):AID493035, AID493241]
Chain of 1-acylglycerol-3-phosphate O-acyltransferase ABHD5/Perilipin-5 (Q00G26 whole entry, the tested form may be a part): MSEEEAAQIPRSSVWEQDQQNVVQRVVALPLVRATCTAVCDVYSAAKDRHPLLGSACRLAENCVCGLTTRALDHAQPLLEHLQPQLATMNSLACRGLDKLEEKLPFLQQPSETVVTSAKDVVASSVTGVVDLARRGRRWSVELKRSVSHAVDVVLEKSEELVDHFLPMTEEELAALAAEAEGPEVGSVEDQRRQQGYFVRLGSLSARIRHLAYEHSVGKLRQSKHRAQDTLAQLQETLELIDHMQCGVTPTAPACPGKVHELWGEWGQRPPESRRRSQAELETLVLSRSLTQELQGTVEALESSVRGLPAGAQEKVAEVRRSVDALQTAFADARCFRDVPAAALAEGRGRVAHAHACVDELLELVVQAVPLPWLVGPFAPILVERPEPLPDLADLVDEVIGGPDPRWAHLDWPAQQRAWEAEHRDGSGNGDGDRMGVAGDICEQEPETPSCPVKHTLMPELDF
Chain of 1-acylglycerol-3-phosphate O-acyltransferase ABHD5/Perilipin-5 (Q8WTS1 whole entry, the tested form may be a part): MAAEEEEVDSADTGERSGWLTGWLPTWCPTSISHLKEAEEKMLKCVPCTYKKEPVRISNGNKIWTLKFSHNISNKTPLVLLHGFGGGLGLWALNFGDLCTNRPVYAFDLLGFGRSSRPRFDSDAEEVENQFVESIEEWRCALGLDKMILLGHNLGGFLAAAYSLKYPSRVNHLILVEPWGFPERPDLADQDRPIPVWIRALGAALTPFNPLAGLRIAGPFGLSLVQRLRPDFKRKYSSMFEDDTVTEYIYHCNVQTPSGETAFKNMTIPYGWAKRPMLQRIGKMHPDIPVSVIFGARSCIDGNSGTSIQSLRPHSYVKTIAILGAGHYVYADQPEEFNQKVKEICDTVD

[8] = biological target: Perilipin-1/ABHD5 (Homo sapiens, UniProt O60240+Q8WTS1); assay: Luminescence-based biochemical high throughput dose response assay for inhibitors of the interaction of the lipase co-activator protein, abhydrolase domain containing 5 (ABHD5) with perilipin-1 (PLIN1) (2K validation set). [Related pubchem assays (depositor defined):AID493027, AID493057]
Chain of Perilipin-1/ABHD5 (Q8WTS1 whole entry, the tested form may be a part): as above
Chain of Perilipin-1/ABHD5 (O60240 whole entry, the tested form may be a part): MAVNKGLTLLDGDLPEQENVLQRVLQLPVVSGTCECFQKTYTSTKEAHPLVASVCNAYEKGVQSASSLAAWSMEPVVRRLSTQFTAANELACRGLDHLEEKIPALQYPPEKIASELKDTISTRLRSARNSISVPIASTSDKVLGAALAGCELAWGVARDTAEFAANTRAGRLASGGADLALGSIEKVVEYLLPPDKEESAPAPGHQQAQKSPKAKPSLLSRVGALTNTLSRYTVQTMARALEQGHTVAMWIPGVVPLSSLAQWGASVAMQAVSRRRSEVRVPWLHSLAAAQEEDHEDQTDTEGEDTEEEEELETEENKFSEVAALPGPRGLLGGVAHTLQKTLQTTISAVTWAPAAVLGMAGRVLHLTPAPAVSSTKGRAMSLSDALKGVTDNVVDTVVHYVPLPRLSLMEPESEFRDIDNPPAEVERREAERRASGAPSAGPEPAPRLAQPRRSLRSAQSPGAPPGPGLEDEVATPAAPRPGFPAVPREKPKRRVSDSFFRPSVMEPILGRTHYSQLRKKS

[9] = biological target: T2, Alkaline phosphatase, tissue-nonspecific isozyme (Homo sapiens, UniProt P05186)
T2 sequence (P05186 whole entry): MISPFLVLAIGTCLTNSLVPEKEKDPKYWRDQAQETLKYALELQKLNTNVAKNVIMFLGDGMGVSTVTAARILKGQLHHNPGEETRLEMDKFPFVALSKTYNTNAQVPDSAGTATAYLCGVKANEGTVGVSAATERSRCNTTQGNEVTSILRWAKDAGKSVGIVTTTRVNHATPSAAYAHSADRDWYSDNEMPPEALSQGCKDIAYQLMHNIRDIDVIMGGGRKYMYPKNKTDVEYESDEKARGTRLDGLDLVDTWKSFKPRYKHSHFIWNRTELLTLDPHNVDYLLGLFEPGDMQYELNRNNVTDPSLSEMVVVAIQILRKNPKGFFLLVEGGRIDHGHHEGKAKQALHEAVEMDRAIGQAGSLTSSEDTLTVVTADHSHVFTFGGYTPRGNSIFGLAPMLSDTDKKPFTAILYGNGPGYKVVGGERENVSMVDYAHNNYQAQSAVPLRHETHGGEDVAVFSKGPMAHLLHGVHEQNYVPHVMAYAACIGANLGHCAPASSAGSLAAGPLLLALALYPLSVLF

Chain of Lysosomal acid glucosylceramidase (P04062 whole entry): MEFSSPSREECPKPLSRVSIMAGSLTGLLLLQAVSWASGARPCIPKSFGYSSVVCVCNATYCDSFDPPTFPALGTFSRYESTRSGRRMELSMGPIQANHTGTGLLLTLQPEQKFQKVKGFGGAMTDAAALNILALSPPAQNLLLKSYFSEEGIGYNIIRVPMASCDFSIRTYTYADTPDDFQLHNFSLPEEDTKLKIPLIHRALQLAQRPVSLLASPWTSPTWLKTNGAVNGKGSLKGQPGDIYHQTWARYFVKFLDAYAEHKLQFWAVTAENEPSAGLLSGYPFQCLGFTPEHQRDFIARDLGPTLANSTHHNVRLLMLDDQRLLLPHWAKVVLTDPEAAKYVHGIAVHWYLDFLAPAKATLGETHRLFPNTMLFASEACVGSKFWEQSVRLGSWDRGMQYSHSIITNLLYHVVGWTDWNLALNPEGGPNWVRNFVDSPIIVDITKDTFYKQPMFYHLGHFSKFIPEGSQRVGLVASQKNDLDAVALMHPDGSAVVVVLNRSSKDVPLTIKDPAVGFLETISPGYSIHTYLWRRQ

Which EC50 [1] does the source give for `CCCCN(C)C(=O)CCCCn1c(=O)[nH]c2cc(OCC)c(OCC)cc2c1=O` here?
Its EC50 is > 10 µM (not active).

Which EC50 [2] does the source give for `O=C1c2ccc(Cl)cc2S(=O)(=O)c2cccc(C(=O)N3CCC(Cc4ccccc4)CC3)c21` here?
Its EC50 is 16.6 µM (active).

`O=C(CSc1ccc(-c2ccco2)nn1)NCCc1ccccc1` was tested. Which IC50 [3] did it give?
Its IC50 is 95.2 µM (active).

What about the IC50 [4] of the same compound?
The IC50 was > 100 µM (inactive).

Which results are given for `N#C/C(=C\c1ccc(OCc2ccc(C(=O)O)cc2)cc1)C(=O)NCc1ccccc1`?
IC50 [5]: 7.07 µM (active); IC50 [6]: 7.1 µM (active)

`CCN(CC)c1nc2cc(OC)ccc2cc1C#N` was tested. Which EC50 [1] did it give?
The EC50 was > 10 µM (not active).

Which results are given for `COc1ccc(/C=C\C(=O)c2c(O)ccc3c(C)cc(=O)oc23)cc1OC`?
IC50 [7]: 8.91 µM (active); IC50 [8]: 4.46 µM (active)

`CC1Cc2ccccc2N1C(=O)COc1nc2ccccc2nc1N1CCOCC1` (stereo not given) was tested. Which EC50 [9] did it give?
The EC50 was > 100 µM (not active).
